Reference: ChEMBL document CHEMBL5500384, “New synergistic benzoquinone scaffolds as inhibitors of mycobacterial cytochrome bc1 complex to treat multi-drug resistant tuberculosis” (Eur J Med Chem, 2024)

Legend:
[1] = test system: Mycobacterium tuberculosis; assay: Antitubercular activity against Mycobacterium tuberculosis H37Rv incubated for 5 days by microtiter plate method; type: functional; details: 120 h, time 5 day
[2] = Renal toxicity in Albino mouse assessed as change in renal corpuscles at 50 to 2000 mg/kg, po measured after 14 days; type: organism-based; details: in vivo, 336 h, dose 50-2000 mg/kg, time 14 day
[3] = Renal toxicity in Albino mouse assessed as change in distal convoluted tubules at 50 to 2000 mg/kg, po measured after 14 days; type: organism-based; details: in vivo, 336 h, dose 50-2000 mg/kg, time 14 day
[4] = Acute toxicity in Albino mouse assessed as change in neutrophils at 50 to 2000 mg/kg, po measured after 14 days (reference value: 75%); type: organism-based; details: in vivo, 336 h, dose 50-2000 mg/kg, time 14 day
[5] = Acute toxicity in Albino mouse assessed as change in eosinophils at 50 to 2000 mg/kg, po measured after 14 days (reference value: 3%); type: organism-based; details: in vivo, 336 h, dose 50-2000 mg/kg, time 14 day
[6] = Hepatotoxicity in Albino mouse assessed as change in bile duct at 50 to 2000 mg/kg, po measured after 14 days; type: toxicity, organism-based, Liver; details: in vivo, 336 h, dose 50-2000 mg/kg, time 14 day
[7] = Acute toxicity in Albino mouse assessed as change in lymphocytes at 50 to 2000 mg/kg, po measured after 14 days (reference value: 21%); type: organism-based; details: in vivo, 336 h, dose 50-2000 mg/kg, time 14 day
[8] = Acute toxicity in Albino mouse assessed as change in serum creatine level at 50 to 2000 mg/kg, po measured after 14 days (reference value: 0.9 mg/dl); type: organism-based; details: in vivo, 336 h, dose 50-2000 mg/kg, time 14 day
[9] = Hepatotoxicity in Albino mouse assessed as change in central vein at 50 to 2000 mg/kg, po measured after 14 days; type: toxicity, organism-based; details: in vivo, 336 h, dose 50-2000 mg/kg, time 14 day
[10] = Pulmonary toxicity in Albino mouse assessed as change in alveolar sacs at 50 to 2000 mg/kg, po measured after 14 days; type: organism-based; details: in vivo, 336 h, dose 50-2000 mg/kg, time 14 day
[11] = Renal toxicity in Albino mouse assessed as change in Bowman's capsule at 50 to 2000 mg/kg, po measured after 14 days; type: organism-based; details: in vivo, 336 h, dose 50-2000 mg/kg, time 14 day
[12] = Acute toxicity in Albino mouse assessed as change in ALP level at 50 to 2000 mg/kg, po measured after 14 days (reference value: 28 IU/L); type: organism-based; details: in vivo, 336 h, dose 50-2000 mg/kg, time 14 day
[13] = Cytotoxicity against african green monkey Vero cells assessed as cell viability at 100 ug/ml by MTT assay; type: toxicity, cell-based; details: chlorocebus sabaeus, at 100 µg/mL, read-out: Activity
[14] = Renal toxicity in Albino mouse assessed as change in renal tubules at 50 to 2000 mg/kg, po measured after 14 days; type: organism-based; details: in vivo, 336 h, dose 50-2000 mg/kg, time 14 day
[15] = Cytotoxicity against african green monkey Vero cells assessed as cell viability at 25 ug/ml by MTT assay; type: toxicity, cell-based; details: chlorocebus sabaeus, at 25 µg/mL, read-out: Activity
[16] = Acute toxicity in Albino mouse assessed as change in SGOT count at 50 to 2000 mg/kg, po measured after 14 days (reference value: 42 IU/L); type: organism-based; details: in vivo, 336 h, dose 50-2000 mg/kg, time 14 day
[17] = Cytotoxicity against african green monkey Vero cells assessed as cell viability at 50 ug/ml by MTT assay; type: toxicity, cell-based; details: chlorocebus sabaeus, at 50 µg/mL, read-out: Activity
[18] = Pulmonary toxicity in Albino mouse assessed as appearance of cilia at 50 to 2000 mg/kg, po measured after 14 days; type: organism-based; details: in vivo, 336 h, dose 50-2000 mg/kg, time 14 day
[19] = Acute toxicity in Albino mouse assessed as change in monocytes at 50 to 2000 mg/kg, po measured after 14 days (reference value: 1%); type: organism-based; details: in vivo, 336 h, dose 50-2000 mg/kg, time 14 day
[20] = Pulmonary toxicity in Albino mouse assessed as change in alveoli structure at 50 to 2000 mg/kg, po measured after 14 days; type: organism-based; details: in vivo, 336 h, dose 50-2000 mg/kg, time 14 day
[21] = Acute toxicity in po dosed Albino mouse assessed as mortality after 14 days; type: organism-based; details: in vivo, time 14 day
[22] = Hepatotoxicity in Albino mouse assessed as change in portal tracks at 50 to 2000 mg/kg, po measured after 14 days; type: toxicity, organism-based; details: in vivo, 336 h, dose 50-2000 mg/kg, time 14 day
[23] = Hepatotoxicity in Albino mouse assessed as change in hepatocytes at 50 to 2000 mg/kg, po measured after 14 days; type: toxicity, organism-based; details: in vivo, 336 h, dose 50-2000 mg/kg, time 14 day
[24] = Acute toxicity in Albino mouse assessed as change in serum urea level at 50 to 2000 mg/kg, po measured after 14 days (reference value: 46 mg/dl); type: organism-based; details: in vivo, 336 h, dose 50-2000 mg/kg, time 14 day
[25] = Hepatotoxicity in Albino mouse assessed as change in portal vein at 50 to 2000 mg/kg, po measured after 14 days; type: toxicity, organism-based; details: in vivo, 336 h, dose 50-2000 mg/kg, time 14 day
[26] = Acute toxicity in Albino mouse assessed as change in total leucocyte count at 50 to 2000 mg/kg, po measured after 14 days (reference value: 7400 mm3); type: organism-based; details: in vivo, 336 h, dose 50-2000 mg/kg, time 14 day
[27] = Cytotoxicity against african green monkey Vero cells assessed as cell viability at 6.25 ug/ml by MTT assay; type: toxicity, cell-based; details: chlorocebus sabaeus, at 6.25 µg/mL, read-out: Activity
[28] = Renal toxicity in Albino mouse assessed as change in proximal convoluted tubules at 50 to 2000 mg/kg, po measured after 14 days; type: organism-based; details: in vivo, 336 h, dose 50-2000 mg/kg, time 14 day
[29] = Renal toxicity in Albino mouse assessed as extravasation of RBC at 50 to 2000 mg/kg, po measured after 14 days; type: organism-based, Erythrocyte; details: in vivo, 336 h, dose 50-2000 mg/kg, time 14 day
[30] = Acute toxicity in Albino mouse assessed as change in ESR at 50 to 2000 mg/kg, po measured after 14 days (reference value: 10 millimeter); type: organism-based; details: in vivo, 336 h, dose 50-2000 mg/kg, time 14 day
[31] = Renal toxicity in Albino mouse assessed as change in tubular capillaries at 50 to 2000 mg/kg, po measured after 14 days; type: organism-based; details: in vivo, 336 h, dose 50-2000 mg/kg, time 14 day
[32] = Acute toxicity in Albino mouse assessed as mortality at 2000 mg/kg, po after 2 to 4 hrs; type: organism-based; details: in vivo, time 2-4 hrs
[33] = Cytotoxicity against african green monkey Vero cells assessed as cell viability at 3.125 ug/ml by MTT assay; type: toxicity, cell-based; details: chlorocebus sabaeus, at 3.125 µg/mL, read-out: Activity
[34] = Pulmonary toxicity in Albino mouse assessed as change in squamous pneumocytes at 50 to 2000 mg/kg, po measured after 14 days; type: organism-based; details: in vivo, 336 h, dose 50-2000 mg/kg, time 14 day
[35] = Acute toxicity in Albino mouse assessed as change in hemoglobin level at 50 to 2000 mg/kg, po measured after 14 days (reference value: 12.8 g/dl); type: organism-based; details: in vivo, 336 h, dose 50-2000 mg/kg, time 14 day
[36] = Acute toxicity in Albino mouse assessed as change in LDH level at 50 to 2000 mg/kg, po measured after 14 days (reference value: 1052 IU/L); type: organism-based; details: in vivo, 336 h, dose 50-2000 mg/kg, time 14 day
[37] = Renal toxicity in Albino mouse assessed as structural absorbability abnormalities at 50 to 2000 mg/kg, po measured after 14 days; type: organism-based; details: in vivo, 336 h, dose 50-2000 mg/kg, time 14 day
[38] = Pulmonary toxicity in Albino mouse assessed as change in bronchi structure at 50 to 2000 mg/kg, po measured after 14 days; type: organism-based; details: in vivo, 336 h, dose 50-2000 mg/kg, time 14 day
[39] = Acute toxicity in Albino mouse assessed as mortality at 50 mg/kg, po after 14 days; type: organism-based; details: in vivo, 336 h, time 14 day
[40] = Hepatotoxicity in Albino mouse assessed as change in hepatic artery at 50 to 2000 mg/kg, po measured after 14 days; type: toxicity, organism-based, Liver; details: in vivo, 336 h, dose 50-2000 mg/kg, time 14 day
[41] = Acute toxicity in Albino mouse assessed as mortality at 300 mg/kg, po after 5 to 8 hrs; type: organism-based; details: in vivo, time 5-8 hrs
[42] = Cytotoxicity against african green monkey Vero cells assessed as cell viability at 12.5 ug/ml by MTT assay; type: toxicity, cell-based; details: chlorocebus sabaeus, at 12.5 µg/mL, read-out: Activity
[43] = Pulmonary toxicity in Albino mouse assessed as appearance of goblet cells at 50 to 2000 mg/kg, po measured after 14 days; type: organism-based; details: in vivo, 336 h, dose 50-2000 mg/kg, time 14 day
[44] = Acute toxicity in Albino mouse assessed as change in RBC count measured per million cells at 50 to 2000 mg/kg, po measured after 14 days (reference value: 9.15 microL); type: organism-based, Erythrocyte; details: in vivo, 336 h, dose 50-2000 mg/kg, time 14 day
[45] = Acute toxicity in Albino mouse assessed as change in SGPT count at 50 to 2000 mg/kg, po measured after 14 days (reference value: 52 IU/L); type: organism-based; details: in vivo, 336 h, dose 50-2000 mg/kg, time 14 day

NC1=C(Cl)C(=O)c2ccccc2C1=O
MIC [1]: 15.1 µM | Activity [2]: Non-Toxic | Activity [3]: Non-Toxic | Activity [4]: 58% | Activity [5]: 5% | Activity [6]: Non-Toxic | Activity [7]: 36% | Activity [8]: 0.9 mg/dL | Activity [9]: Non-Toxic | Activity [10]: Non-Toxic | Activity [11]: Non-Toxic | Activity [12]: 40 IU/L | viability at 100 ug/ml [13]: 3.1% | Activity [14]: Non-Toxic | viability at 25 ug/ml [15]: 18% | Activity [16]: 34 IU/L | viability at 50 ug/ml [17]: 9.3% | Activity [18]: Non-Toxic | Activity [19]: 1% | Activity [20]: Non-Toxic | LD50 at 336 h [21]: 50 mg/kg | Activity [22]: Non-Toxic | Activity [23]: Non-Toxic | Activity [24]: 68 mg/dL | Activity [25]: Non-Toxic | Activity [26]: 3900 cells/mm3 | viability at 6.25 ug/ml [27]: 55% | Activity [28]: Non-Toxic | Activity [29]: Non-Toxic | Activity [30]: 16 millimeter/hr | Activity [31]: Non-Toxic | Activity [32]: Toxic | viability at 3.125 ug/ml [33]: 60% | Activity [34]: Non-Toxic | Activity [35]: 13.6 g/dL | Activity [36]: 1519 IU/L | Activity [37]: Non-Toxic | Activity [38]: Non-Toxic | Activity [39]: Non-Toxic | Activity [40]: Non-Toxic | Activity [41]: Toxic | viability at 12.5 ug/ml [42]: 31% | Activity [43]: Non-Toxic | Activity [44]: 4.53 10^6 cells/µL | Activity [45]: 26 IU/L

CCOc1cc(/C=N/C2=C(Cl)C(=O)c3ccccc3C2=O)ccc1O
MIC [1]: 6.25 mg/L

NNC(=O)c1ccncc1 [ISONIAZID]
MIC [1]: 1.82 µM

O=C1C(Cl)=C(N2C(=O)C(Cl)C2c2cccc([N+](=O)[O-])c2)C(=O)c2ccccc21 (centres undefined)
MIC [1]: 12.5 mg/L

O=C1C(Cl)=C(/N=C/c2ccc(Cl)cc2)C(=O)c2ccccc21
MIC [1]: 6.25 mg/L
